From US20230174488A1 (priority 2020, published 2023)
In brackets after ≈: the same amount, converted by molar mass. Where two headings read alike, the source gives them in different places.

Tests used:
[1] = molecular target: CYP 2D6 (Homo sapiens, UniProt P10635); assay: CYP inhibition assay, 2D6
Procedure: (§1) The following reagents/reactants were used in the assay: water was purified by ELGA Lab purification systems, buffer solution: PB (100 mM), MgCl2 (33 mM), organic solvents were AR or HPLC grade, CYP substrates: phenacetin (10 µM, 25 µL, 1A2), diclofenac (5 µM, 25 µL, 2C9), S-mephenytoin (30 µM, 75 µL, 2C19), dextromethorphan (5 µM, 12,5, 2D6), and midazolam (2 µM, 10 µL, 3A4), stock solutions were prepared in MeOH (20, 10, 20, 20, and 10 mM, respectively). Positive controls: α-naphthoflavone, sulfaphenazole, (+)-N-3-benzylnirvanol, quinidine, and ketoconazole, final concentration was 3 µM in MeOH (90 µL), stock solutions were prepared in DMSO (3 mM for all the inhibitors). Test compounds were evaluated using five conc. points at the range of 15-5,000 µM. […] Main procedure: working solution (100×) of the test compound and standard inhibitors were prepared, microsomes were pulled out of the -80° C. freezer to thaw on ice, labeled the date and put it back to the freezer immediately after use. Substrates (20 µL) and PB (20 µL) were added to corresponding wells and Blank wells, respectively. […] HLM working solution (158 µL) was added to all wells of the incubation plate. Plate was pre-warmed for about 10 min at 37° C. in a water bath, then NADPH (20 µL) was added to all incubation wells. CYPs were mixed and incubated for 10 min at 37° C. in a water bath. The reaction was terminated at the time point by adding a 400 µL cold stop solution (200 ng/mL tolbutamide and labetalol in ACN). Samples were centrifuged at 4000 rpm for 20 minutes to precipitate protein. Supernatant (200 µL) was transferred to 100 µL HPLC water and shaken for 10 min, then samples were subjected for LC/MS/MS analysis. XL fit was used to plot the percent of vehicle control vs the test compound concentrations, and for non-linear regression analysis of the data. IC50 values were determined using 3- or 4-parameter logistic equations.

[2] = physchem; conditions: water, kinetic from dmso stock
[3] = molecular target: CYP 3A4 (Homo sapiens, UniProt P08684); assay: CYP inhibition assay, 3A4
Procedure: as §1

[4] = type: in vitro ADME; conditions: human, microsomes
Procedure: (§2) Cold ACN, including 100 ng/ml tolbutamide and 100 ng/ml labetalol as internal standard (IS), was used for the stop solution. Compound or control working solution (10 µl per well) was added to all plates (T0, T5, T10, T20, T30, T60, and NCF60), except the matrix blank. Dispensed microsome solution (80 µl per well) was added to every plate by Apricot and the mixture of microsome solution and compound was incubated at 37° C. for approximately 10 min. After prewarming, a dispensed NADPH regenerating system (10 µl per well) was added to every plate by Apricot to start a reaction. The solution was then incubated at 37° C. Stop solution (300 µl per well, 4° C.) was then added to terminate the reaction. The sampling plates were shaken for approximately 10 minutes. The samples were centrifuged at 4,000 rpm. for 20 min at 4° C. While centrifuging, new 8×96-well plates were loaded with 300 µl HPLC water, and then 100 µl supernatant was transferred and mixed for liquid chromatography-tandem mass spectrometry (LC/MS/MS).

[5] = molecular target: T1, CYP 1A2 (Homo sapiens, UniProt P05177); assay: CYP inhibition assay, 1A2
T1 sequence (P05177 1-516): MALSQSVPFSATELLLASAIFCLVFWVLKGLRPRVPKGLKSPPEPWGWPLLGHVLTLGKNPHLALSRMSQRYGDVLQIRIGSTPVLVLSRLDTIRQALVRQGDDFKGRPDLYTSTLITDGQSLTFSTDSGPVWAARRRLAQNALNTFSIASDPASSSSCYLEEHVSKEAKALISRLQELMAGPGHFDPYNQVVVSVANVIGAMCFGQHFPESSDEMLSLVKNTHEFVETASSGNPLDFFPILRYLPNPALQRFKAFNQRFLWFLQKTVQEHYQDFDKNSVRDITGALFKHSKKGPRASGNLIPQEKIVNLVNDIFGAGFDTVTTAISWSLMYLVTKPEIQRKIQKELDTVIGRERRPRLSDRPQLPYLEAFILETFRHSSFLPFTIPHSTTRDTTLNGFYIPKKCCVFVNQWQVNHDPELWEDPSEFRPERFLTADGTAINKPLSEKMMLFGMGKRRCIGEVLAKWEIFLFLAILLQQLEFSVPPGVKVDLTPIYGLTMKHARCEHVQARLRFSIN
Procedure: as §1

[6] = Microsomal stability, mouse liver microsomes; type: in vitro ADME; conditions: CD-1, mouse
Procedure: as §2

[7] = molecular target: CYP 2C19 (Homo sapiens, UniProt P33261); assay: CYP inhibition assay, 2C19
Chain of CYP 2C19 (P33261 whole entry): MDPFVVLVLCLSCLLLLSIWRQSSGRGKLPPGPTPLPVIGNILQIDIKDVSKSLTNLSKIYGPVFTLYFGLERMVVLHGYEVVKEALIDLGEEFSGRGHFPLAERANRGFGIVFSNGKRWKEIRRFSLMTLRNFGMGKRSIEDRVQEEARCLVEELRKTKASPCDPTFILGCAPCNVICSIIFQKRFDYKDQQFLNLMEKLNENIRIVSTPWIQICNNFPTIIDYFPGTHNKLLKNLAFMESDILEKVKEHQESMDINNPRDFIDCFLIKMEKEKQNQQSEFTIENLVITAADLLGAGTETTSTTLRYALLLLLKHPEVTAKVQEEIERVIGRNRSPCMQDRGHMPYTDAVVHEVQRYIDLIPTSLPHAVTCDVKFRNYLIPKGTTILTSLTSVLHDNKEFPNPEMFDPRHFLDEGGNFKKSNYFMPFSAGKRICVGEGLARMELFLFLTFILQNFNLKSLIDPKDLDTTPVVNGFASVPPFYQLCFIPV
Procedure: as §1

[8] = molecular target: CYP 2C9 (Homo sapiens, UniProt P11712); assay: biochemical
Chain of CYP 2C9 (P11712 whole entry): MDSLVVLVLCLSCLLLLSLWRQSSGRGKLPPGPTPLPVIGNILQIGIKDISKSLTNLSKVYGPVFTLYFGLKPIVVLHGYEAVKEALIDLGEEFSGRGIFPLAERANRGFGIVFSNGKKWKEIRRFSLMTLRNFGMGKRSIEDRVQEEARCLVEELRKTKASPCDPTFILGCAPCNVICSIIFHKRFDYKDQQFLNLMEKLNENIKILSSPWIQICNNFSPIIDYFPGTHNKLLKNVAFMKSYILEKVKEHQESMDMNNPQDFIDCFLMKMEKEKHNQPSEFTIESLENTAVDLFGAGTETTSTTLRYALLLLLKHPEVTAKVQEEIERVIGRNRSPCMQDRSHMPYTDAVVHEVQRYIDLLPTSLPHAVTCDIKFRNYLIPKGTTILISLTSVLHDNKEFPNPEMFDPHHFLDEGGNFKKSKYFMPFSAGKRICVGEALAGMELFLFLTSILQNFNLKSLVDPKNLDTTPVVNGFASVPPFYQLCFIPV
Procedure: as §1

[9] = molecular target: T2, SARS-CoV-2 M^PRO (Severe acute respiratory syndrome coronavirus 2, UniProt P0DTD1); assay: biochemical; type: biochemical; conditions: In vitro potency data; 30 min pre-incubation, 25 nM M^pro, 25 µM substrate; read-out: IC50
[10] = in vitro; conditions: mouse
[11] = Plasma stability, human; type: in vitro ADME; conditions: pH 7.4
Procedure: (§3) Propantheline bromide was used as a reference compound in this assay. The pooled frozen plasma was thawed in a water bath at 37° C. prior to experiment. Plasma was centrifuged at 4000 rpm for 5 min and the clots were removed if any. The pH will be adjusted to 7.4 ± 0.1 if required.
(§4) Preparation of compounds: 1 mM intermediate solution was prepared by diluting 10 µL of the stock solution with 90 µL DMSO; 1 mM intermediate of positive control Propantheline was prepared by diluting 10 µL of the stock solution with 90 µL ultrapure water. For test compounds, 100 µM dosing solution was prepared by diluting 10 µL of the intermediate solution (1 mM) with 90 µL DMSO. […] 98 µL of blank plasma was spiked with 2 µL of dosing solution (100 µM) to achieve 2 µM of the final concentration in duplicate and samples were Incubated at 37° C. in a water bath. […] Centrifuged sample plates at 4,000 rpm for 10 min. An aliquot of supernatant (50 µL) was transferred from each well and mixed with 100 µL ultra-pure water. The samples were shaken at 800 rpm for about 10 min before submitting to LC-MS/MS analysis. The % remaining of test compound after incubation in plasma was calculated using following equation:
(§5) where PAR is the peak area ratio of analyte versus internal standard (IS).

[12] = Caco-2 permeability; type: in vitro ADME; conditions: human, Caco-2, pH 7.4
Procedure: Medium was refreshed every 4 \~5 days until the 21st to 28th day for confluent cell monolayer formation. The transport buffer was HBSS with 10 mM HEPES at pH=7.40±0.05. […] Final DMSO concentration was adjusted to less than 1%. The plate was incubated for 2 h in the CO2 incubator at 37±1° C., with 5% CO2 at saturated humidity without shaking. All the samples were then mixed with acetonitrile containing internal standard and centrifuged at 3200 xg for 10 min. For nadolol and metoprolol, 100 µL supernatant solution was diluted with 300 µL distilled water for LC-MS/MS analysis. For digoxin and test compounds, 100 µL supernatant solution was diluted with 100 µL distilled water for LC-MS/MS analysis. Concentrations of test and control compounds in starting solution, donor solution, and receiver solution were quantified by LC-MS/MS methodologies, using peak area ratio of analyte/internal standard. After transport assay, lucifer yellow rejection assay was applied to determine the Caco-2 cell monolayer integrity. The apparent permeability coefficient Papp (cm/s) was calculated using the equation:
where d/Cr/6t is the cumulative concentration of compound in the receiver chamber as a function of time (µM/s); Vr is the solution volume in the receiver chamber (0.075 mL on the apical side, 0.25 mL on the basolateral side); A is the surface area for the transport, i.e. 0.0804 cm^2 for the area of the monolayer; C0 is the initial concentration in the donor chamber (µM).
The efflux ratio was calculated using the equation:
where Vd is the volume in the donor chambers (0.075 mL on the apical side, 0.25 mL on the basolateral side); Cd and Cr are the final concentrations of the transport compound in donor and receiver chambers, respectively.

[13] = PAMPA permeability assay; type: in vitro ADME
Procedure: 2.6 g KH2PO4 and 18.5 g K3PHO4×3H2O were dissolved in 1000 mL of ultra-pure water, mixed thoroughly. The pH was adjusted to 7.40 ± 0.05, using either 1 M sodium hydroxide or 1 M hydrochloric acid. 0.2 mM working solution was prepared by diluting 10 mM stock solution with DMSO. 10 µM donor solution (5% DMSO) was prepared by diluting 20 µL of working solution with 380 µL PBS. 150 µL of 10 µM donor solutions to each well of the donor plate, whose PVDF membrane was precoated with 5 µL of 1% lecithin/dodecane mixture. Duplicates were prepared. 300 µL of PBS was added to each well of the PTFE acceptor plate. The donor plate and acceptor plate were combined together and incubated for 4 h at room temperature with shaking at 300 rpm. […] Preparation of acceptor sample: the plate was removed from the incubator. 270 µL solution was transferred from each acceptor well and mixed with 130 µL ACN (containing internal standard) as acceptor sample. […] Acceptor samples and donor samples were all analyzed by LC-MS/MS.

[14] = in vitro; conditions: human
[15] = Plasma stability, mice; type: in vitro ADME; conditions: mouse
Procedure: as §3, §4, §5

[16] = system: SARS-CoV-2; assay: In vitro antiviral cell-based assay (live SARS-CoV-2 IFA) in Vero cells; conditions: Severe acute respiratory syndrome coronavirus 2, MOI ~0.0125, 24 hpi
[17] = in vitro; conditions: African green monkey
[18] = plasma
[19] = mouse, plasma
[20] = molecular target: T2, SARS-CoV-2 M^PRO; assay: Crystal structure of ligand bound to SARS-CoV-2 M^pro; conditions: X-ray, complex with SARS-CoV-2 M^pro
[21] = Cytotoxicity (CC50) in Vero cells; conditions: African green monkey

Chain of CYP 2D6 (P10635 whole entry): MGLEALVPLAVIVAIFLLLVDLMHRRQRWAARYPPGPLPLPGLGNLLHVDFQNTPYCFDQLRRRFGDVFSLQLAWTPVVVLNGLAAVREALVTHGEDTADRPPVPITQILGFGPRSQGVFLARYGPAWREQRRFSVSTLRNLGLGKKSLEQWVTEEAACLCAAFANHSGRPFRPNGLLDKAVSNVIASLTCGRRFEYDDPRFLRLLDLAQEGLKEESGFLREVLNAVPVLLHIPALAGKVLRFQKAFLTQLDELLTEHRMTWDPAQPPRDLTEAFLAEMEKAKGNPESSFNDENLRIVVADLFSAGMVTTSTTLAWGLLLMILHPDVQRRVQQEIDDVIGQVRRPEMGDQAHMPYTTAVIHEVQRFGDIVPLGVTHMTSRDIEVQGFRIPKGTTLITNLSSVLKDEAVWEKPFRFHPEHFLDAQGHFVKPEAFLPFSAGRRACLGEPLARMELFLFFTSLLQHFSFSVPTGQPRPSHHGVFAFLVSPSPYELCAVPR
Chain of CYP 3A4 (P08684 whole entry): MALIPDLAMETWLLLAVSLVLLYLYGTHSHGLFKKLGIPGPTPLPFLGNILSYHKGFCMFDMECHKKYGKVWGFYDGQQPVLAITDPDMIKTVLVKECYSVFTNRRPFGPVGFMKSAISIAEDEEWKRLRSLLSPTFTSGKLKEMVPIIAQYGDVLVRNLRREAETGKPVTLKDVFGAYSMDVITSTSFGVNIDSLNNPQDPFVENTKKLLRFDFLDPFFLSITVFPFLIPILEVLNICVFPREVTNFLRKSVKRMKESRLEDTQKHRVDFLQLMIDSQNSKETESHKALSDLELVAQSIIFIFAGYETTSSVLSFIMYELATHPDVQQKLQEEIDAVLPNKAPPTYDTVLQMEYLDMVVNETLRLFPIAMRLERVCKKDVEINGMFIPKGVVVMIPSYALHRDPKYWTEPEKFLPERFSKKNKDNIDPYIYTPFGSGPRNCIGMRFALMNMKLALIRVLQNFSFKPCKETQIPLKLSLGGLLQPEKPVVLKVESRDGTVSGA

| SMILES | IC50 [1] [µM] | solubility kinetic [2] [µM] | IC50 [3] [µM] | IC50 [5] [µM] | IC50 [7] [µM] | IC50 [8] [µM] | IC50 [9] [µM] | half-life at 2 µM [11] [min] | half-life at 2 µM ([15]; pH 7.4) [min] | EC50 [16] [µM] | further results |
| --- | --- | --- | --- | --- | --- | --- | --- | --- | --- | --- | --- |
| CC(C(=O)NC1CCC(F)(F)CC1)(c1cncnc1)N(C(=O)CCl)c1ccc(-c2ccno2)cc1 (single isomer, unassigned) [INSCoV-601P(1A), 2-(2-Chloro-N-(4-(isoxazol-5-yl)phenyl)acetamido)-N-(4,4-difluorocyclohexyl)-2-(pyrimidin-5-yl)propanamide] | 6.12 | 142 (≈ 71.6 µg/mL) | 3.62 | > 50 | > 50 | > 50 | 0.14 | 16.3 | 13.1 |  | microsomal CLint [4]: 66 µL/min/mg; microsomal CLint [6]: 102 µL/min/mg; recovery [10]: 2.8%; Papp A→B at 2 h, 2 µM [12]: < 0.48 ×10⁻⁶ cm/s; efflux ratio at 2 h, 2 µM [12]: > 0.489; Papp at 4 h, 10 µM ([13]; pH 7.4): 0.626 ×10⁻⁶ cm/s; recovery [14]: 1.3% |
| O=C(NC1CCC(F)(F)CC1)[C@@H](c1cncnc1)N(C(=O)[C@@H](F)Cl)c1ccc(-c2cncs2)cc1 (single isomer, unassigned) [INSCoV-614(1B), 2-Chloro-N-(2-((4,4-difluorocyclohexyl)amino)-2-oxo-1-(pyrimidin-5-yl)ethyl)-2-fluoro-N-(4-(thiazol-5-yl)phenyl)acetamide] | 6.5 | 164 (≈ 85.9 µg/mL) | 1.45 | 24.3 | 9.5 | 15.6 | 0.06 | > 289 | > 289 | 2.23 | CC50 at 24 h [17]: > 25 µM; Plasma stability, T½, min, human ([11]; 2 µM): >289.1 min; PAMPA, Mean Pe ([13]; 4 h, 10 µM, pH 7.4): 0.188 ×10⁻⁶ cm/s; Papp at 4 h, 10 µM ([13]; pH 7.4): 0.188 ×10⁻⁶ cm/s; Stability in plasma (in words) [15]: significantly improved stability in plasma; Plasma stability, T½, min, mice ([15]; 2 µM, pH 7.4): >289.1 min; PPB, human, % Bound [18]: 70.59%; PPB, mice, % Bound [19]: 83.78% |
| N#Cc1cc(OC(F)(F)F)ccc1N(C(=O)CCl)C(C(=O)NC1CCC(F)(F)CC1)c1cncnc1 (centres unmarked) [INSCoV-517A, 2-chloro-N-(2-cyano-4-(trifluoromethoxy)phenyl)-N-(2-((4,4-difluorocyclohexyl)amino)-2-oxo-1-(pyrimidin-5-yl)ethyl)acetamide] |  |  |  |  |  |  | 0.09 |  |  | 11.1 |  |
| N#Cc1cc(OC(F)(F)F)ccc1N(C(=O)CCl)C(C(=O)NC1CCCCC1)c1cccnc1 (centres unmarked) [INSCoV-517] |  |  |  |  |  |  | 0.24 |  |  | 3.22 | CC50 at 24 h [17]: > 50 µM |
| O=C(NC1CCC(F)(F)CC1)C(c1cncnc1)N(C(=O)CCl)c1ccc(-c2cncs2)cc1 (centres unmarked) [INSCoV-600K, 2-Chloro-N-(2-((4,4-difluorocyclohexyl)amino)-2-oxo-1-(pyrimidin-5-yl)ethyl)-N-(4-(thiazol-5-yl)phenyl)acetamide] |  |  |  |  |  |  | 0.078 |  |  | 14.5 |  |
| O=C(NC1CCC(F)(F)CC1)C(c1cnccn1)N(C(=O)CCl)c1ccc(-c2cncs2)cc1 (centres unmarked) [INSCoV-601G, 2-Chloro-N-(2-((4,4-difluorocyclohexyl)amino)-2-oxo-1-(pyrazin-2-yl)ethyl)-N-(4-(thiazol-5-yl)phenyl)acetamide] |  |  |  |  |  |  | 0.08 |  |  | 10.2 |  |
| O=C(NC1CCC(F)(F)CC1)[C@@H](c1cnccn1)N(C(=O)CCl)c1ccc(-c2ccns2)cc1 [INSCoV-601I(l)] |  |  |  |  |  |  | 0.05 |  |  | 14.1 | Binding mode in crystal structure [20]: covalently bound to Cys145 residue of SARS-CoV-2 M^Pro |
| O=C(NC1CCC(F)(F)CC1)C(c1cnccn1)N(C(=O)CCl)c1ccc(-c2ccns2)cc1 (centres unmarked) [INSCoV-601I, 2-Chloro-N-(2-((4,4-difluorocyclohexyl)amino)-2-oxo-1-(pyrazin-2-yl)ethyl)-N-(4-(isothiazol-5-yl)phenyl)acetamide] |  |  |  |  |  |  | 0.062 |  |  | 11.1 |  |
| CC(C(=O)NC1CCC(F)(F)CC1)(c1cnccn1)N(C(=O)CCl)c1ccc(-c2ccns2)cc1 (centres unmarked) [INSCoV-601N, 2-(2-Chloro-N-(4-(isothiazol-5-yl)phenyl)acetamido)-N-(4,4-difluorocyclohexyl)-2-(pyrazin-2-yl)propanamide] | 0.706 | < 1.56 | 0.218 | 24.9 | 5.65 | 3.25 | 0.12 | 32.6 | 21.1 |  | microsomal CLint [4]: 169 µL/min/mg; microsomal CLint [6]: 531 µL/min/mg; recovery [10]: 0.1%; Papp A→B at 2 h, 2 µM ([12]; A to B, 2.00 µM, pH 7.40, read-out: Caco-2, Mean Papp,, A to B): < 0.0434 ×10⁻⁶ cm/s; Papp at 4 h, 10 µM ([13]; pH 7.4, pH 7.40, 4 h, read-out: PAMPA, Mean Pe): 15.5 ×10⁻⁶ cm/s; recovery [14]: 0.2% |
| Cc1cccc(C)c1OCC(=O)N[C@@H](Cc1ccccc1)[C@@H](O)C[C@H](Cc1ccccc1)NC(=O)[C@H](C(C)C)N1CCCNC1=O [Lopinavir, lopinavir, reference compound] |  |  |  |  |  |  |  |  |  | 13.9 | CC50 at 24 h [21]: > 50 µM |
